Experimental findings from ChEMBL document CHEMBL4808200, “Identification of a Series of N-Methylpyridine-2-carboxamides as Potent and Selective Inhibitors of the Second Bromodomain (BD2) of the Bromo and Extra Terminal Domain (BET) Proteins” (J Med Chem, 2021) are described below.

In brackets after ≈: the same amount, converted by molar mass.

Data set [1] in a line: Solubility of the compound in pH 6.5 FaSSIF at […] measured after 16 hrs by HPLC analysis. In kind it is physicochemical.
Data set [2] is described as follows: Permeability of the compound at pH 7.4 by artificial membrane permeability assay. In kind it is ADME. Particulars: PAMPA, read-out: permeability. In general terms: In PAMPA a lipid-coated filter parts donor from acceptor wells.
The nature of data set [3]: Intrinsic clearance in Wistar Han rat cryopreserved pooled hepatocytes at 0.5 uM measured up to 60 mins by LC-MS/MS analysis. The format is ADME, tissue-based, Hepatocyte. The conditions noted are these: 1 h.
Data set [4] in a line: Intrinsic clearance in Beagle dog cryopreserved pooled hepatocytes at 0.5 uM measured up to 120 mins by LC-MS/MS analysis. The format is ADME, tissue-based, Canis lupus familiaris, Hepatocyte. Particulars: 2 h.
A short description of data set [5]: Intrinsic clearance in human cryopreserved pooled hepatocytes at 0.5 uM measured up to 120 mins by LC-MS/MS analysis. The conditions noted are these: 2 h. The format is ADME, tissue-based, Hepatocyte.
A short description of data set [6]: Clearance in Wistar Han rat at 1 mg/kg, iv administered as 1 hr infusion or 3 mg/kg, po administered via gavage by LC-MS/MS analysis. The format is ADME, organism-based. Particulars: in vivo.
A short description of data set [7]: Clearance in Beagle dog at 0.5 mg/kg, iv administered as 1 hr infusion on day 1 and day 7 to achieve a target dose of 1 mg/kg by LC-MS/MS analysis. In kind it is ADME, organism-based, Canis lupus familiaris. Particulars: in vivo, dose 0.5-1 mg/kg, time 7 day.
Data set [8] can be described thus: Volume of distribution at steady state in Wistar Han rat at 1 mg/kg, iv administered as 1 hr infusion or 3 mg/kg, po administered via gavage by LC-MS/MS analysis. In kind it is ADME, organism-based. The conditions noted are these: in vivo, read-out: Vdss.
The nature of data set [9]: Volume of distribution at steady state in Beagle dog at 0.5 mg/kg, iv administered as 1 hr infusion on day 1 and day 7 to achieve a target dose of 1 mg/kg by LC-MS/MS analysis. Particulars: in vivo, dose 0.5-1 mg/kg, time 7 day, read-out: Vdss. The format is ADME, organism-based, Canis lupus familiaris.
Data set [10] can be described thus: Oral bioavailability in Wistar Han rat at 3 mg/kg administered via gavage by LC-MS/MS analysis. The format is ADME, organism-based. Particulars: in vivo.
A short description of data set [11]: Oral bioavailability in Beagle dog. The format is ADME, organism-based, Canis lupus familiaris. The conditions noted are these: in vivo.
Data set [12] in a line: Unbound clearance in Wistar Han rat at 1 mg/kg, iv administered as 1 hr infusion or 3 mg/kg, po administered via gavage by LC-MS/MS analysis. In kind it is ADME, organism-based. The conditions noted are these: in vivo.
Data set [13] in a line: Unbound clearance in Beagle dog at 0.5 mg/kg, iv administered as 1 hr infusion on day 1 and day 7 to achieve a target dose of 1 mg/kg by LC-MS/MS analysis. The format is ADME, organism-based, Canis lupus familiaris. Particulars: in vivo, 168 h, dose 0.5-1 mg/kg, time 7 day.
Data set [14] in a line: Half life in Wistar Han rat at 1 mg/kg, iv administered as 1 hr infusion or 3 mg/kg, po administered via gavage by LC-MS/MS analysis. In kind it is ADME, organism-based. The conditions noted are these: in vivo.
Data set [15] can be described thus: Half life in Beagle dog at 0.5 mg/kg, iv administered as 1 hr infusion on day 1 and day 7 to achieve a target dose of 1 mg/kg by LC-MS/MS analysis. The conditions noted are these: in vivo, dose 0.5-1 mg/kg, time 7 day. In kind it is ADME, organism-based, Canis lupus familiaris.
A short description of data set [16]: physchem. The conditions noted are these: buffer, pH 7.4.
The nature of data set [17]: Clearance in Beagle dog at 0.5 mg/kg, iv administered as 1 hr infusion on day 1 and day 7 to achieve a target dose of 1 mg/kg by LC-MS/MS analysis relative to liver blood flow. The conditions noted are these: in vivo, 168 h, dose 0.5-1 mg/kg, time 7 day. In kind it is ADME, organism-based, Canis lupus familiaris.

For the molecule `CNC(=O)c1cc(C(=O)N[C@H]2[C@@H]3COC[C@@H]32)cc(Cc2cccc3[nH]ccc23)n1`, in data set [1], the solubility (usually the dissolved amount per volume that the medium holds) at 16 h came to 91 µg/mL (≈ 233 µM). For the same molecule, in data set [2], the Papp came out at 16 ×10⁻⁶ cm/s. For the same molecule, the results for the CLH in [3], in [4] and in [5] were 2.05 mL/min/g, less than 0.65 mL/min/g and less than 0.45 mL/min/g, respectively. Moreover, the clearance amounted to 39 mL/min/kg in data set [6] and 4 mL/min/kg in data set [7]. Also, the Vd in data set [8] was 1.8 L/kg; in [9], 0.9 L/kg. Besides, the bioavailability (in general, the share of a dose that reaches the circulation, judged against a reference dose that is usually intravenous) in data set [10] was determined as 69%; in [11] it was 41%. For the same molecule, the CL free in [12] turned out to be 206 mL/min/kg; in [13], 19 mL/min/kg. Moreover, the values for the half-life in data set [14] and in data set [15] were 42 min and 150 min, respectively. Besides, in data set [16], the chromatographic logD (in general, a lipophilicity value derived from retention on a column) is 3.1.
`CNC(=O)c1cc(C(=O)N[C@H]2C[C@@H]2C)cc(Cc2cccc3[nH]ccc23)n1`: the concentration in solution in [1] (solubility at 16 h) was 127 µg/mL (≈ 350 µM). For the same molecule, in data set [2], the Papp came to 18.3 ×10⁻⁶ cm/s. The CLH in [3] was 1.06 mL/min/g; in [4], less than 0.65 mL/min/g; in data set [5] it was less than 0.45 mL/min/g. The clearance was found to be 18 mL/min/kg in [6] and 13 mL/min/kg in data set [7]. Further, the Vd in data set [8] worked out at 1.2 L/kg; in data set [9], 1.6 L/kg. The figures for the bioavailability in data set [10] and in data set [11] were 48% and 55%, respectively. Besides, the CL free in data set [12] is 69 mL/min/kg; in [13] it was 88 mL/min/kg. The half-life (as a rule, the time needed for the level to fall by half in the phase considered) was 72 min in data set [14] and 132 min in [15]. Also, in data set [16], the chromatographic logD stood at 3.
For the molecule `CNC(=O)c1cc(C(=O)N[C@H]2[C@@H]3COC[C@@H]32)cc(Cc2ccccc2)n1`, the concentration in solution in data set [1] (solubility at 16 h) came to 112 µg/mL (≈ 319 µM). The Papp in data set [2] came out at 21.5 ×10⁻⁶ cm/s. The CLH is 1.4 mL/min/g in data set [3], 0.76 mL/min/g in [4] and less than 0.45 mL/min/g in [5]. Moreover, the clearance in data set [6] worked out at 22 mL/min/kg; in data set [7] it was 43 mL/min/kg. Further, the Vd in data set [8] is 1.7 L/kg; in [9] it was 1.4 L/kg. In addition, the bioavailability in data set [10] came out at 62%; in data set [11], 10%. Moreover, the CL free in data set [12] was determined as 168 mL/min/kg; in [13], 122 mL/min/kg. The half-life is 18 min in data set [14] and 24 min in [15]. In [17], the QH was 80%. Also, the chromatographic logD in [16] worked out at 3.5.
As to `CNC(=O)c1cc(C(=O)N[C@H]2C[C@@H]2C)cc([C@@H](O)c2ccccc2)n1`, the solubility at 16 h in data set [1] was greater than 1000 µg/mL. Further, the Papp in [2] was 18.3 ×10⁻⁶ cm/s. Further, the figures for the CLH in data set [3], in data set [4] and in data set [5] were less than 0.8 mL/min/g, 0.81 mL/min/g and 0.8 mL/min/g, respectively. The clearance in data set [6] amounted to 29 mL/min/kg; in data set [7], 32 mL/min/kg. Moreover, the values for the Vd in data set [8] and in [9] were 2.2 L/kg and 2.1 L/kg, respectively. Also, the bioavailability amounted to 34% in data set [10] and 35% in [11]. Moreover, the CL free in data set [12] was found to be 96 mL/min/kg; in data set [13] it was 102 mL/min/kg. The half-life was 120 min in data set [14] and 36 min in [15]. This molecule gave a chromatographic logD in data set [16] of 3.2.
Take `CNC(=O)c1cc(C(=O)N[C@H]2[C@@H]3COC[C@@H]32)cc(C(OC)c2ccccc2)n1` (some centres not stated): in data set [1], the solubility at 16 h worked out at 575 µg/mL (≈ 1510 µM). Besides, the Papp in data set [2] worked out at 14.5 ×10⁻⁶ cm/s. Moreover, the CLH is 1.27 mL/min/g in [3], less than 0.65 mL/min/g in data set [4] and less than 0.45 mL/min/g in data set [5]. In addition, the results for the clearance in [6] and in [7] were 52 mL/min/kg and 9.4 mL/min/kg, respectively. The results for the Vd in [8] and in data set [9] were 2.1 L/kg and 0.9 L/kg, respectively. The figures for the bioavailability in data set [10] and in data set [11] were 17% and 65%, respectively. Besides, the CL free in data set [12] was determined as 142 mL/min/kg; in data set [13], 23 mL/min/kg. Moreover, the half-life in [14] is 90 min; in [15] it was 72 min. In data set [16], this molecule showed a chromatographic logD of 3.4.
Molecule `CNC(=O)c1cc(C(=O)N[C@H]2[C@@H]3COC[C@@H]32)cc([C@@H](C)c2ccccc2)n1` gave a solubility at 16 h in data set [1] of 117 µg/mL (≈ 320 µM). In addition, the Papp in data set [2] came to 37 ×10⁻⁶ cm/s. In addition, the results for the CLH in data set [3], in data set [4] and in [5] were 2.03 mL/min/g, less than 0.65 mL/min/g and less than 0.45 mL/min/g, respectively. The clearance in [6] was 52 mL/min/kg; in [7], 44 mL/min/kg. The Vd in data set [8] was 1.7 L/kg; in data set [9] it was 1.3 L/kg. The bioavailability in [10] came to 39%; in data set [11], 14%. The figures for the CL free in [12] and in [13] were 147 mL/min/kg and 171 mL/min/kg, respectively. Further, the half-life in [14] and in data set [15] was 24 min each time. For the same molecule, the chromatographic logD in data set [16] amounted to 4.1.
